Data: patent US11603382B2, “Diastereoselective synthesis of phosphate derivatives” (NuCana plc, priority 2015, dated 2023)
Values belong to the compound of their own block, whether it stands above or below them.

What was measured:
[1] = solubility in water; type: physicochemical; conditions: regardless of salt content or pH
Protocol: NUC-1031 is extremely lipophillic and thus poorly water soluble (by calculation: <0.1 mg/mL), and the ionisable moieties have calculated pKas which lie out-side the pH range suitable for parenteral administration. […] It also has implications for the development of efficient manufacturing processes which will allow NUC-1031 to be produced cost effectively.

[2] = solubility in mixtures of polar organic solvents with water; type: physicochemical
Excerpt: It has recently been discovered that the (S)-epimer of gemcitabine-[phenyl-benzoxy-L-alaninyl)]-phosphate has sufficient solubility in mixtures of a number of polar organic solvents with water to render it suitable for formulation and administration as a therapeutic agent. […] In certain solvent mixtures the difference in solubility between the (S)-epimer and the (R)-epimer is over 100 fold. It is expected therefore that more clinically effective, practical and patient friendly administration methods can be developed using the (S)-epimer than can be developed using the (R)-epimer or using the mixture. It is thus desirable to be able to provide gemcitabine-[phenyl-benzoxy-L-alaninyl)]-(S)-phosphate in substantially diastereoisomerically pure form.

[3] = test system: isolated human hepatic cells; experiment: half-life on incubation with isolated human hepatic cells; type: in vitro ADME
Excerpt: The longer half-life associated with (R)-isomer indicates a lower intrinsic clearance and should result in a different pharmacokinetic and pharmacodynamic profile to the (S)-isomer which may offer some benefits.

solubility in water [1]: essentially insoluble in water
SMILES: C[C@H](NP(=O)(OC[C@H]1O[C@@H](n2ccc(N)nc2=O)C(F)(F)C1O)Oc1ccccc1)C(=O)OCc1ccccc1 (stereo partly drawn) [NUC-1031, 2′-deoxy-2′,2′-difluoro-D-cytidine-5′-O-[phenyl(benzoxy-L-alaninyl)] phosphate]

difference in solubility between the (S)-epimer and the (R)-epimer ([2]; in certain solvent mixtures (polar organic solvents with water), (S)-epimer over (R)-epimer): over 100 fold
SMILES: C[C@H](N[P@](=O)(OC[C@H]1O[C@@H](n2ccc(N)nc2=O)C(F)(F)C1O)Oc1ccccc1)C(=O)OCc1ccccc1 (stereo partly drawn) [(S)-epimer]

solubility relative to the (S)-epimer ([2]; mixtures of polar organic solvents with water): considerably lower | half-life relative to that of the (S)-epimer [3]: four times
SMILES: C[C@H](N[P@@](=O)(OC[C@H]1O[C@@H](n2ccc(N)nc2=O)C(F)(F)C1O)Oc1ccccc1)C(=O)OCc1ccccc1 (stereo partly drawn) [(R)-epimer]
